One assay addresses T1, MDM2:MDMX heterodimer (Homo sapiens, UniProt Q00987).
T1 construct: PLA of endogenous FL-MDM2 and MDMX in A549; endogenous in cells; host or cells: A549
As to the kind of experiment: Proximity ligation assay, endogenous FL-MDM2 and MDMX in A549. It is filed as cell-based. Particulars: A549 (TP53 WT), 10% FBS.

A further assay relates to HCT116 TP53 null cells. Nature of the assay: Cell viability (CellTiter Glo 2.0). It is filed as cell-based, human. To be noted: 24 h, 2% FBS. As to the method: Immunocytochemistry. HCT116 TP53 null cells were seeded at 0.5 x 10^5 cells per well of a 12-well plate containing a sterilised 0.13-0.17mm glass coverslip in complete DMEM and incubated overnight. Cells were fixed in 4% paraformaldehyde (Sigma) for 15 minutes at room temperature, then permeabilised with 0.1% triton X100 (Sigma) for 4 minutes at room temperature. Cells were then blocked in 10% donkey serum, 1% BSA in PBS for 1 Hr at room temperature. Following blocking, cells were co-incubated in MDM2 (mouse) and MDMX (rabbit) primary antibodies overnight at 4 °C. Subsequently, secondary Alexa Fluor antibodies were co-incubated for a further 1 Hr at room temperature. […]
RTCA xCELLigence. Real-time cellular analysis (RTCA) of A549 cells was measured utilising the label-free cellular growth xCELLigence platform (Roche Applied Science, Agilent Technologies), where-by cellular impedance was leveraged as an indirect indicator of relative cell growth (i.e., cell index; CI). […] Relative growth (Δ growth) of treated A549 cells was assessed as a % difference of vehicle after 72 Hrs post-treatment (i.e., 100% relative cell growth at experiment endpoint).
Cell Viability. For MOLM-13, THP-1 (Fig. 3A), HCT116 TP53 wild-type, HCT116 TP53 null (Fig. 3D), HEK293, and IMR-90 (Fig. 3E) cells, relative cell viability was assessed via CellTiter Glo 2.0 Cell Viability Assay (Promega: […]
In general terms: In ATP-based viability assays light output follows the ATP content of the culture.

T1 sequence (Q00987 whole entry, one chain of several): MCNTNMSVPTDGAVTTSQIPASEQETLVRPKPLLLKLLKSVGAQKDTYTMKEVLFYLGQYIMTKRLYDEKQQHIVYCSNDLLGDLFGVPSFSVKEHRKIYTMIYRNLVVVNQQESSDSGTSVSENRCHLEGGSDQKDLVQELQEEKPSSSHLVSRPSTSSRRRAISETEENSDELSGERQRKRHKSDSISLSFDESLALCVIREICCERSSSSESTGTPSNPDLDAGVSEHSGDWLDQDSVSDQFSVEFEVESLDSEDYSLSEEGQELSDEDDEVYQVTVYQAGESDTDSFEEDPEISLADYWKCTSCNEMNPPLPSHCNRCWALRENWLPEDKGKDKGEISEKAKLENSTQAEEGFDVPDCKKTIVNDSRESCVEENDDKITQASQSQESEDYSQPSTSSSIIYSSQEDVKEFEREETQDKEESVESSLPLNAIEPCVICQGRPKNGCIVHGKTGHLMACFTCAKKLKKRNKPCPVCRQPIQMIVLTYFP

In the case of `COc1cc(C(=O)O)ccc1NC(=O)[C@@H]1N[C@@H](CC(C)(C)C)[C@](C#N)(c2ccc(Cl)cc2F)[C@H]1c1cccc(Cl)c1F` [Idasanutlin], the “Endogenous MDM2 heterodimerization, PLA” value on MDM2:MDMX heterodimer is “did not affect MDM2 heterodimerization”. Further, the “Relative cell viability / anti-proliferative activity (in words)” value in the assay on HCT116 TP53 null cells is “no anti-proliferative activity”.

Values taken from article PMC12395054, “Targeting MDM2 homodimer and heterodimer disruption with DRx-098D in TP53 wild-type and mutant cancer cells” (Molecular Therapy Oncology, 2025).
